Test results from PMC5384453, “A multi-functional PEGylated gold(III) compound: potent anti-cancer properties and self-assembly into nanostructures for drug co-delivery” (Chemical Science, 2016).
Like-named read-outs stand apart in the source and are kept apart here.

Key:
NCM460 cells = experiment: FITC-Annexin V staining and flow cytometry; assay type: cell-based, human; conditions: NCM460, 2 μM, 24 h
Description: (§1) The induction of apoptosis of HCT116 and NCM460 cells by 1 was further studied using FITC-Annexin V staining. […] The quantity of apoptotic cells stained by FITC-Annexin V after treatment with 1 or Au1a was also investigated by flow cytometry. […]
(§2) with gold(III) complexes and FITC-annexin V staining. HCT116 (1×10 5 cells) and […]
(§3) annexin-binding buffer solution. The cells were then incubated with FITC-annexin V […]
(§4) at room temperature in dark for 15 min. The solution was then removed, and the cells were washed with annexin-binding buffer solution. Fluorescence images were then […]
(§5) in ice and analyzed by flow cytometry immediately. […]
(§6) staining and flow cytometry.

HCT116 cells [1] = experiment: FITC-Annexin V staining and flow cytometry; assay type: cell-based, human; conditions: HCT116, 2 μM, 24 h
Description: as §1, §2, §3, §4, §5, §6

MIHA = experiment: In vitro cytotoxicity, MTT assay; assay type: cell-based
Description: (§7) In vitro cytotoxicity assays. HeLa, NCI-H460, HCT116, A2780, A2780cis and
(§8) cells), respectively, were seeded in 96-well plates for 24 h. The cells were then treated with a serial concentration of gold(III) complexes and incubated at 37 °C under a 5% CO2 atmosphere for 72 h. For nanostructures of 1, 2 and NC1, they were dissolved in
(§9) cisplatin were dissolved in culture medium-DMSO solution mixture (99:1, v/v).
(§10) After incubation for 72 h, MTT in PBS solution (5 mg/mL, 10 μL) was added to each well. The plates were incubated at 37 °C under a 5% CO2 atmosphere for another 4 h, and the cells were lysed by the addition of SDS solution (10%, w/w) with 0.01 M HCl (100 μL). After incubation in dark at 37 °C overnight, the cell viability after treatment was determined by a microtitre plate reader monitoring at the absorbance at 590 nm,

HCT116 = experiment: In vitro cytotoxicity, MTT assay; assay type: cell-based, human; conditions: for IC50: HCT116, MTT assay, 72 h incubation; for Toxicity toward cancer cells compared to that toward CCD-19Lu cells, HCT-116: IC50 of CCD-19Lu cells / IC50 of HCT-116; for Toxicity toward cancer cells compared to that toward MIHA cells, HCT-116: IC50 of MIHA cells / IC50 of HCT-116; for Toxicity toward cancer cells compared to that toward NCM460 cells, HCT-116: IC50 of NCM460 cells / IC50 of HCT-116
Description: as §7, §8, §9, §10

A2780 = experiment: In vitro cytotoxicity, MTT assay; assay type: cell-based, human; conditions: for IC50: A2780, MTT assay, 72 h incubation; for Toxicity toward cancer cells compared to that toward CCD-19Lu cells, A2780: IC50 of CCD-19Lu cells / IC50 of A2780; for Toxicity toward cancer cells compared to that toward MIHA cells, A2780: IC50 of MIHA cells / IC50 of A2780; for Toxicity toward cancer cells compared to that toward NCM460 cells, A2780: IC50 of NCM460 cells / IC50 of A2780
Description: as §7, §8, §9, §10

NCI-H460 = experiment: In vitro cytotoxicity, MTT assay; assay type: cell-based, human; conditions: for Toxicity toward cancer cells compared to that toward CCD-19Lu cells, NCI-H460: IC50 of CCD-19Lu cells / IC50 of NCI-H460; for Toxicity toward cancer cells compared to that toward MIHA cells, NCI-H460: IC50 of MIHA cells / IC50 of NCI-H460; for Toxicity toward cancer cells compared to that toward NCM460 cells, NCI-H460: IC50 of NCM460 cells / IC50 of NCI-H460; for IC50: NCI-H460, MTT assay, 72 h incubation
Description: as §7, §8, §9, §10

HeLa = experiment: In vitro cytotoxicity, MTT assay; assay type: cell-based, human; conditions: for IC50: HeLa; for Toxicity toward cancer cells compared to that toward CCD-19Lu cells, HeLa: IC50 of CCD-19Lu cells / IC50 of HeLa; for Toxicity toward cancer cells compared to that toward MIHA cells, HeLa: IC50 of MIHA cells / IC50 of HeLa; for Toxicity toward cancer cells compared to that toward NCM460 cells, HeLa: IC50 of NCM460 cells / IC50 of HeLa
Description: as §7, §8, §9, §10

A2780cis = experiment: In vitro cytotoxicity, MTT assay; assay type: cell-based, human; conditions: for IC50: A2780cis, MTT assay, 72 h incubation; for Resistance found in A2780cis: IC50 of A2780cis cells / IC50 of A2780 cells; for Toxicity toward cancer cells compared to that toward CCD-19Lu cells, A2780cis: IC50 of CCD-19Lu cells / IC50 of A2780cis; for Toxicity toward cancer cells compared to that toward NCM460 cells, A2780cis: IC50 of NCM460 cells / IC50 of A2780cis
Description: as §7, §8, §9, §10

CCD-19Lu = experiment: In vitro cytotoxicity, MTT assay; assay type: cell-based, human; conditions: 72 h incubation
Description: as §7, §8, §9, §10

A2780adr = experiment: In vitro cytotoxicity, MTT assay; assay type: cell-based, human; conditions: for IC50: A2780adr; for Resistance found in A2780adr: IC50 of A2780adr cells / IC50 of A2780 cells; for Toxicity toward cancer cells compared to that toward CCD-19Lu cells, A2780adr: IC50 of CCD-19Lu cells / IC50 of A2780adr; for Toxicity toward cancer cells compared to that toward MIHA cells, A2780adr: IC50 of MIHA cells / IC50 of A2780adr; for Toxicity toward cancer cells compared to that toward NCM460 cells, A2780adr: IC50 of NCM460 cells / IC50 of A2780adr
Description: as §7, §8, §9, §10

NCM460 = experiment: In vitro cytotoxicity, MTT assay; assay type: cell-based, human; conditions: 72 h incubation
Description: as §7, §8, §9, §10

HCT116 cells [2] = experiment: Hydrolysis in live cells, UPLC-QTOF-MS of cell lysates; assay type: in vitro ADME, human; conditions: 2 μM, 24 h
Description: Hydrolysis of the gold(III) complexes in live cells was examined by ultra-performance liquid chromatography coupled quadrupole-time-of-flight mass spectrometry (UPLC-QTOF-MS). Colon cancer cells (HCT116) were treated with 1, 2 and 3 (2 μM) for 24 h, harvested and lysed in an acetonitrile–water solution mixture (3 : 1, v/v) prior to UPLC-QTOF-MS analysis. […] Therefore, the peak is attributable to the major metabolite of 1 formed in HCT116 cells. […] This should be attributable to the higher stability of the amide bond versus the ester bond in vitro. […]
which reflected the amount of blue formazan formed. IC50 values were then determined by CompuSyn S6 from three independent measurements.
Study on the release of hydrolyzed product from 1 and 2 in aqueous buffer solutions by ICP-MS. The nanostructures of gold(III) complex was dissolved in PBS solution (pH 7.4; 1 mg/mL) or sodium acetate buffer solution (pH 4.0; 1 mg/mL) and was dialyzed against 1 L of the buffer solution at 37 °C using semipermeable minidialysis tubes (molecular weight cut-off = 1,000 Da; GE Healthcare). At a predetermined time, an aliquot of solution was removed and dissolved in HNO3/HCl solution mixture (9:1, v/v; volume of aliquot: volume of acid mixture = 1:3). The solution mixture was heated at 65 °C with shaking overnight, and the gold content was determined by ICP-MS from three independent aliquots.
Study on the hydrolysis of 1 and 2 in aqueous buffer solutions by 1H NMR. […]
The flow rate was 0.4 mL/min and the injection volume was 2 µL. The UPLC-QTOF-MS chromatograms of 1, 3, 4 and solvent control in acetonitrile were also recorded for the interpretation of UPLC-QTOF-MS chromatograms of the cell lysate. […]
Au1a (2 µM; with 1 vol% DMSO). […] An aliquot of the cell suspension was subjected to Bio-rad protein assay with a microtitre plate reader at the absorbance at 595 nm, using bovine serum albumin as the protein standard. […] The solution mixture was heated at 65 °C with shaking overnight, and the gold content was determined by ICP-MS. […]

[3] = MTT assay, 72 h incubation, read-out: IC50
[4] = 72 h, read-out: Total dose at IC50

| Molecule | percent of apoptotic cells (FITC-Annexin V, background corrected) (NCM460 cells) [%] | percent of apoptotic cells (FITC-Annexin V, background corrected) (HCT116 cells [1]) [%] | IC50 (MIHA; [3]) [nM] | IC50 (HCT116) [nM] | Toxicity toward cancer cells compared to that toward CCD-19Lu cells, HCT-116 (HCT116) | Toxicity toward cancer cells compared to that toward MIHA cells, HCT-116 (HCT116) | Toxicity toward cancer cells compared to that toward NCM460 cells, HCT-116 (HCT116) | IC50 (A2780) [nM] | Toxicity toward cancer cells compared to that toward CCD-19Lu cells, A2780 (A2780) | Toxicity toward cancer cells compared to that toward MIHA cells, A2780 (A2780) | Toxicity toward cancer cells compared to that toward NCM460 cells, A2780 (A2780) | Toxicity toward cancer cells compared to that toward CCD-19Lu cells, NCI-H460 (NCI-H460) | Toxicity toward cancer cells compared to that toward MIHA cells, NCI-H460 (NCI-H460) | Toxicity toward cancer cells compared to that toward NCM460 cells, NCI-H460 (NCI-H460) | IC50 (NCI-H460) [nM] | IC50 (HeLa; [3]) [nM] | Toxicity toward cancer cells compared to that toward CCD-19Lu cells, HeLa (HeLa) | Toxicity toward cancer cells compared to that toward MIHA cells, HeLa (HeLa) | Toxicity toward cancer cells compared to that toward NCM460 cells, HeLa (HeLa) | IC50 (A2780cis) [nM] | further results |
| --- | --- | --- | --- | --- | --- | --- | --- | --- | --- | --- | --- | --- | --- | --- | --- | --- | --- | --- | --- | --- | --- |
| C1=Cc2nc1c(-c1ccccc1)c1ccc([n-]1)c(-c1ccccc1)c1nc(c(-c3ccccc3)c3ccc([n-]3)c2-c2ccccc2)C=C1.[Au+3].[Cl-] [Au1a, [Au(TPP)]Cl, reference compound] | 39.3 | 39.6 | 400 ± 70 | 90 ± 20 | 2.6 | 4.4 | 0.8 | 120 ± 20 | 1.9 | 3.3 | 0.6 | 1.0 | 1.7 | 0.3 | 230 ± 10 | 660 ± 40 | 0.3 | 0.6 | 0.1 | 180 ± 10 | Resistance found in A2780cis (A2780cis): 1.49; Toxicity toward cancer cells compared to that toward CCD-19Lu cells, A2780cis (A2780cis): 1.3; Toxicity toward cancer cells compared to that toward NCM460 cells, A2780cis (A2780cis): 0.4; IC50 (CCD-19Lu): 230 ± 40 nM; IC50 (A2780adr; [3]): 1130 ± 150 nM; Resistance found in A2780adr (A2780adr): 9.09; Toxicity toward cancer cells compared to that toward CCD-19Lu cells, A2780adr (A2780adr): 0.2; Toxicity toward cancer cells compared to that toward MIHA cells, A2780adr (A2780adr): 0.4; Toxicity toward cancer cells compared to that toward NCM460 cells, A2780adr (A2780adr): 0.06; IC50 (NCM460): 70 ± 10 nM |
| [Au(TPP–COO–PEG5000–OCH3)]Cl [Compound 1] | 2.4 | 22.5 | 14500 ± 2550 | 390 ± 30 | 39.0 | 37.2 | 42.1 | 510 ± 90 | 29.8 | 28.4 | 32.2 | 17.9 | 17.1 | 19.3 | 850 ± 70 | 1910 ± 480 | 8.0 | 7.6 | 8.6 | 640 ± 30 | hydrolysis / release of [Au(TPP–COOH)]+ in cells (HCT116 cells [2]): hydrolysis of the ester bond of 1 in HCT116 cells to form [Au(TPP–COOH)]^+; IC50 (MIHA; 72 h, read-out: 1 at IC50): 14500 nM; IC50 (MIHA; [4]): 14500 nM; IC50 (HeLa; 72 h, read-out: 1 at IC50): 1910 nM; IC50 (HeLa; [4]): 1910 nM; Resistance found in A2780cis (A2780cis): 1.27; Toxicity toward cancer cells compared to that toward CCD-19Lu cells, A2780cis (A2780cis): 23.8; Toxicity toward cancer cells compared to that toward MIHA cells, A2780cis (A2780cis; IC50 of MIHA cells / IC50 of A2780cis): 22.7; Toxicity toward cancer cells compared to that toward NCM460 cells, A2780cis (A2780cis): 25.6; IC50 (CCD-19Lu): 15200 ± 1930 nM; IC50 (A2780adr; 72 h, read-out: 1 at IC50): 1510 nM; IC50 (A2780adr; [4]): 1510 nM; IC50 (A2780adr; [3]): 1510 ± 400 nM; Resistance found in A2780adr (A2780adr): 2.94; Toxicity toward cancer cells compared to that toward CCD-19Lu cells, A2780adr (A2780adr): 10.1; Toxicity toward cancer cells compared to that toward MIHA cells, A2780adr (A2780adr): 9.1; Toxicity toward cancer cells compared to that toward NCM460 cells, A2780adr (A2780adr): 10.9; IC50 (NCM460): 16400 ± 2450 nM |
